# Source: patent publication US20040253665A1, “Novel peptide-producing enzyme, microbe producing the enzyme and method for dipeptide synthesis using them” (AJINOMOTO CO., INC., priority 2002, published 2004)
# Like-named read-outs stand apart in the source and are kept apart here. Residues, ends and D or L forms follow the SMILES beside them.
# B1: Carboxypeptidase Y: known enzyme described in EP 278787A1, purified enzyme manufactured by Sigma (protein, UniProt P00729 112-532, looked up)
# Carboxypeptidase Y: KIKDPKILGIDPNVTQYTGYLDVEDEDKHFFFWTFESRNDPAKDPVILWLNGGPGCSSLTGLFFELGPSSIGPDLKPIGNPYSWNSNATVIFLDQPVNVGFSYSGSSGVSNTVAAGKDVYNFLELFFDQFPEYVNKGQDFHIAGESYAGHYIPVFASEILSHKDRNFNLTSVLIGNGLTDPLTQYNYYEPMACGEGGEPSVLPSEECSAMEDSLERCLGLIESCYDSQSVWSCVPATIYCNNAQLAPYQRTGRNVYDIRKDCEGGNLCYPTLQDIDDYLNQDYVKEAVGAEVDHYESCNFDINRNFLFAGDWMKPYHTAVTDLLNQDLPILVYAGDKDFICNWLGNKAWTDVLPWKYDEEFASQKVRNWTASITDEVAGEVKSYKHFTYLRVFNGGHMVPFDVPENALSMVNEWIHGGFSL
# B2: Papain: thiol endopeptidase described in EP 359399B1, purified enzyme manufactured by Sigma (protein, UniProt P00784 134-345, looked up)
# Papain: IPEYVDWRQKGAVTPVKNQGSCGSCWAFSAVVTIEGIIKIRTGNLNEYSEQELLDCDRRSYGCNGGYPWSALQLVAQYGIHYRNTYPYEGVQRYCRSREKGPYAAKTDGVRQVQPYNEGALLYSIANQPVSVVLEAAGKDFQLYRGGIFVGPCGNKVDHAVAAVGYGPNYILIKNSWGTGWGENGYIRIKRGTGNSYGVCGLYTSSFYPVKN
# Experiments:
# [1] = test system: peptide-producing enzyme (Mono S fraction) from Empedobacter brevis strain FERM BP-8113; experiment: Enzyme substrate specificity (1)-(10), (13), (14); type: biochemical; settings: L-amino acid 150 mM, pH 9.0, 25° C., 3 hours
# In short: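 Mono S-purified peptide-forming enzyme from Empedobacter brevis FERM BP-8113, given L-amino acid esters (hydrochlorides) or amides as carboxy component with amino acids, C-protected amino acids, methylamine, β-amino acids or peptides as amine component. Dipeptide/oligopeptide product quantified; Tween-80 0.1% added with L-Trp-OMe.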
# [2] = test system: enzyme (SP-Sepharose HP fraction) derived from Sphingobacterium sp. strain FERM BP-8124; type: biochemical; set-up: key to Produced peptide (mM): +: those peptides for which production was confirmed but which were unable to be quantified due to the absence of a standard; a trace amount; settings: 0.33 units enzyme, pH 9.0, 25° C., 1.5 hours; for Produced peptide: carboxy component 100 mM; for Produced peptide (mM): Table 15-4, amides or methylamine as components, 100 mM / 150 mM
# Description: Substrate specificity was examined for enzyme derived from Sphingobacterium sp. strain FERM BP-8124 (Depositary institution: National Institute for Advanced Industrial Science and Technology, International Patent Organism Depositary, Address of depositary institution: Central. 6, 1-1-1 Higashi, Tsukuba City, Ibaraki Prefecture, Japan, International deposit date: Jul. 22, 2002). 100 μl of 100 mM borate buffer (pH 9.0) containing the various carboxy components at a final concentration of 100 mM and the various amine components at a final concentration of 150 mM shown in Tables 15-1 to 15-4, the SP-Sepharose HP fraction enzyme purified in Example 22 (addition of 0.33 units in the reaction liquid) and 10 mM EDTA were allowed to react at 25° C. for 1.5 hours. […] In addition, hydrochlorides were used for all carboxy components.
# Substrate specificity with respect to oligopeptide production was examined for enzyme derived from Sphingobacterium sp. strain FERM BP-8124 (Depositary institution: National Institute for Advanced Industrial Science and Technology,.International Patent Organism Depositary, Address of depositary institution: Chuo Dai-6, 1-1 Higashi 1-Chome, Tsukuba-shi, Ibaraki-ken, Japan, International deposit date: Jul. 22, 2002). A 100 μl aliquot of 100 mM borate buffer (pH 9.0) containing the various carboxy components at a final concentration of 100 mM and the various amine components at a final concentration of 150 mM shown in Table 16, the SP-Sepharose HP fraction enzyme purified in Example 22 (addition of 0.33 units in the reaction liquid) and 10 mM EDTA were allowed to react for 1.5 hours at 25° C. Furthermore, hydrochloride salts were used for all carboxy components.
# [3] = test system: Empedobacter brevis strain FERM BP-8113 microbial cells; experiment: Production of peptide using microbial cells of Empedobacter brevis; type: cell-based; settings: microbial cell suspension 100 g/L mixed 1:1 with 200 mM carboxy component and 400 mM amino acid, pH 9.0, 10 mM EDTA, 18° C., 2 hours
# Description: A 50 mL medium (pH 6.2) containing 5 grams (hereinafter, “g”) of glucose, 5 g of ammonium sulfate, 1 g of monopotassium phosphate, 3 g of dipotassium phosphate, 0.5 g of magnesium sulfate, 10 g of yeast extract and 10 g of peptone in 1 liter (hereinafter, “L”) was transferred to a 500 mL Sakaguchi flask and sterilized at 115° C. for 15 minutes. This medium,was then inoculated with one loopful of the culture broth of Empedobacter brevis strain FERM BP-8113 (Depositary institution: National Institute for Advanced Industrial Science and Technology, International Patent Organism Depositary, Address of depositary institution: Chuo Dai-6, 1-1 Higashi 1-Chome, Tsukuba-shi, Ibaraki-ken, Japan, International deposit transfer date: Jul. 8, 2002) that had been cultured at 30° C. for 16 hours in the same medium, followed by shake culturing at 30° C. for 16 hours and 120 strokes/min.
# [4] = test system: peptide-producing enzyme (Mono S fraction) from Empedobacter brevis strain FERM BP-8113; experiment: Enzyme substrate specificity (1)-(10), (13), (14); type: biochemical; set-up: key: +: those peptides for which production was confirmed but which were unable to be quantified due to the absence of a standard; a trace amount; settings: pH 9.0, 25° C., 3 hours
# From the text: Ester specificity was examined in the case of using L-amino acid ester for the carboxy component. […] The amounts of L-Ala-L-Gln produced in this reaction are shown in Table 4 (HCl represents hydrochloride in Table 4). Peptide production was examined in the case of using L-alanine methyl ester for the carboxy component and using various L-amino acids for the amine component. […] (The “+” mark indicates those peptides for which production was confirmed but which were unable to be quantified due to the absence of a standard, while “tr” indicates a trace amount.) Peptide production was examined in the case of using various types of L-amino acid methyl esters for the carboxy component and using L-glutamine for the amine component. […] Peptide production was examined in the case of using various L-amino acid methyl esters for the carboxy component and various L-amino acids for the amine component. […] (The “tr” indicates a trace amount.) Furthermore, Tween-80 was added to the reaction system to a final concentration of 0.1% in the case of using L-Trp-OMe. (The “+” mark indicates those peptides for which production was confirmed but which were unable to be quantified due to the absence of a standard.) […] (The “tr” indicates a trace amount.) Peptide production was examined using various L-amino acid amides for the carboxy component, and various L-amino acids for the amine component. […] Peptide production was examined in the case of using various L-alanine methyl esters for the carboxy component and C-protected L-amino acids for the amine component. […] Peptide production was examined in the case of using various amino acid methyl esters for the carboxy component and methylamine for the amine component. […] Peptide production was examined in the case of using β-amino acid ester for the carboxy component or β-amino acid for the amine component. […] (The “tr” indicates a trace amount.) Oligopeptide production was examined in the case of using L-amino acid ester for the carboxy component and peptide for the amine component. […] Substrate specificity was additionally assessed using the same enzyme fraction as that used in Example 5. […] (A “+” mark indicates those for which production was confirmed but which were unable to be quantified due to the absence of a standard, while “tr” indicates a trace amount). Substrate specificity with respect to oligopeptide production was assessed using the same enzyme fraction as Example 26. […] (A “+” mark indicates those for which production was confirmed but which were unable to be quantified due to the absence of a standard, while “tr” indicates a trace amount). It should be noted that hydrochlorides were used for all of the carboxy components.
# [5] = Comparison of ability to catalyze peptide production with known enzymes; type: biochemical; settings: for L-Ala-L-Gln production rate: 100 mM L-alanine methyl ester, 200 mM L-glutamine, borate buffer pH 9.0, 25° C., enzyme amount as in Table 14; for Ratio of L-Ala-L-Gln production rate per enzyme unit weight: enzyme of present invention = 100.0
# Description: The peptide formation ability of the present enzyme was compared with that of known enzymes. […] The enzyme uniformly purified in Example 3 was used for the source of the enzyme of the present invention. The reaction was carried out by adding enzyme to 100 μl of borate buffer (pH 9.0) containing 100 mM L-alanine methyl ester and 200 mM L-glutamine and allowing to react at 25° C. Furthermore, enzyme dissolved in 10 mM acetate buffer (pH 5.0) containing 1 mM EDTA was used for the carboxypeptidase, while enzyme dissolved in 10 mM acetate buffer (pH 5.0) containing 2 mM EDTA, 0.1 M KCl and 5 mM dithiothreitol was used for the thiol endopeptidase.
# [6] = L-amino acid methyl ester hydrochloride 100 mM
# [7] = Table 15-3, amine component 150 mM
# [8] = 100 mM L-alanine methyl ester hydrochloride
# [9] = Table 15-1, amine component 150 mM
# [10] = L-amino acid amide hydrochloride 100 mM as carboxy component
Molecule,"Produced peptide [1, 6] [mM]","Produced peptide [2, 7] [mM]",Produced peptide [3] [mM],"Produced peptide [1, 8] [mM]","Produced peptide [2, 9] [mM]",also measured
NCC(=O)N[C@@H](Cc1cnc[nH]1)C(=O)O [Gly-L-His] (H-Gly-His-OH),31.6,36.2,22.1,–,–,–
C[C@H](N)C(=O)N[C@@H](CCCN=C(N)N)C(=O)O [L-Ala-L-Arg] (H-Ala-Arg-OH),–,–,72.1,88.0,72.2,–
C[C@H](N)C(=O)N[C@@H](Cc1cnc[nH]1)C(=O)O [L-Ala-L-His] (H-Ala-His-OH),–,–,52.1,66.9,73.6,"Produced peptide [1, 10]: 3.9 mM; Produced peptide (mM) [2]: tr"
CC(C)C[C@H](NC(=O)[C@H](C)N)C(=O)O [L-Ala-L-Leu] (H-Ala-Leu-OH),–,–,38.2,45.3,33.0,–
CSCC[C@H](NC(=O)[C@H](C)N)C(=O)O [L-Ala-L-Met] (H-Ala-Met-OH),–,–,68.3,83.3,86.9,"Produced peptide [1, 10]: 3.4 mM; Produced peptide (mM) [2]: tr"
C[C@H](N)C(=O)N[C@@H](Cc1ccccc1)C(=O)O [L-Ala-L-Phe],–,–,62.4,74.4,69.5,–
C[C@H](N)C(=O)N1CCC[C@H]1C(=O)O [L-Ala-L-Pro] (H-Ala-Pro-OH),–,–,–,–,1.5,"Produced peptide (mM) ([4]; 100 mM L-alanine methyl ester hydrochloride, L-amino acid 150 mM): tr"
C[C@H](N)C(=O)N[C@@H](CO)C(=O)O [L-Ala-L-Ser] (H-Ala-Ser-OH),–,–,51.3,62.5,43.8,–
CC[C@H](C)[C@H](N)C(=O)N[C@@H](CCSC)C(=O)O [L-Ile-L-Met] (H-Ile-Met-OH),10.0,5.1,8.3,–,–,–
CSCC[C@H](N)C(=O)N[C@@H](Cc1ccccc1)C(=O)O [L-Met-L-Phe] (H-Met-Phe-OH),34.0,8.9,28.5,–,–,–
N[C@@H](CO)C(=O)N[C@@H](CO)C(=O)O [L-Ser-L-Ser] (H-Ser-Ser-OH),38.0,9.9,29.0,–,–,–
CC(C)C[C@H](NC(=O)[C@@H](N)[C@@H](C)O)C(=O)O [L-Thr-L-Leu] (H-Thr-Leu-OH),28.4,15.3,23.0,–,–,–
CSCC[C@H](NC(=O)[C@@H](N)C(C)C)C(=O)O [L-Val-L-Met] (H-Val-Met-OH),10.3,6.8,10.5,–,–,–
NC(=O)CC[C@H](NC(=O)[C@@H](N)CC(=O)O)C(=O)O [α-L-Asp-L-Gln] (H-Asp-Gln-OH),–,–,–,–,–,"Produced peptide ([2]; Table 15-2, L-Gln 150 mM): 0.05 mM; Produced peptide (mM) ([4]; L-amino acid methyl ester hydrochloride 100 mM, 150 mM L-glutamine): tr"
Bromelain,–,–,–,–,–,L-Ala-L-Gln production rate [5]: 0.0062 mM/min; Ratio of L-Ala-L-Gln production rate per enzyme unit weight [5]: 0.0010
"Chymopapain: thiol endopeptidase described in EP 359399B1, purified enzyme manufactured by Sigma",–,–,–,–,–,L-Ala-L-Gln production rate [5]: 0.0100 mM/min; Ratio of L-Ala-L-Gln production rate per enzyme unit weight [5]: 0.0013
Ficin,–,–,–,–,–,L-Ala-L-Gln production rate [5]: 0.0096 mM/min; Ratio of L-Ala-L-Gln production rate per enzyme unit weight [5]: 0.0017
B1,–,–,–,–,–,L-Ala-L-Gln production rate [5]: 0.0257 mM/min; Ratio of L-Ala-L-Gln production rate per enzyme unit weight [5]: 0.0191
B2,–,–,–,–,–,L-Ala-L-Gln production rate [5]: 0.0106 mM/min; Ratio of L-Ala-L-Gln production rate per enzyme unit weight [5]: 0.0021
